Assays:
Test in all cases: Microbroth dilution assay, MIC
Assay type in all cases: cell-based
Conditions in all cases: snake β-defensins, linear (alkylated) except native crotamine, 10% TSB, 4 × 10^5 CFU/mL, 512 to 1 µg/mL, overnight 37 °C, read at 600 nm, three independent experiments
[1] = tested on: Escherichia coli ATCC 25922
Description: (§1) The β-defensins were tested using a microbroth dilution assay. It consists of incubating the bacteria (4.105 colony-forming unit—CFU/mL) and the peptide (from 1 to 512 µg/mL) in liquid broth. After the incubation at 37 °C during the night, the bacterial growth was detected by spectrophotometry at 600 nm. If the measure is similar to the broth, it […]. […] The β-defensins were tested against B. jararaca oral flora because it would be of biological and medical interest. In addition, we tested on E. coli ATCC 25922 and M. luteus that are common Gram-negative and Gram-positive bacteria used in antibacterial tests.
(§2) The antibacterial activity of the alkylated peptides was tested against Gram-negative (G−) bacteria (Klebsiella pneumonia, Serratia marcescens, Morganella morganii, Providencia rettgeri, Citrobacter freundii, Escherichia coli ATCC 25922 and Gram-positive (G+) bacteria (Micrococcus luteus A270 and Staphylococcus aureus) using microbroth assay. In a 96-well plate, 90 µL of 10% tryptone soy broth (TSB) with 4 × 10^5 colony-forming unit (CFU/mL) were mixed with serial twofold dilutions of β-defensins duplicate in concentrations from 512 to 1 µg/mL. The derived peptides coded as PS1, PS2, PS3, PS5, and PS6 (Table 1) were tested against these bacteria in serial twofold dilutions with concentrations bellow 700 µg/mL. After overnight incubation at 37 °C, the turbidity of the bacterial culture was read at 600 nm (Epoch microplate reader, Biotek). The minimal inhibitory concentration (MIC) of each peptide was determined as the lowest concentration that results in no visible bacterial growth. The MIC resulted from three independent experiments. The bacteria K. pneumonia, S. marcescens, M. morganii, P. rettgeri, C. freundii, M. luteus A270 and S. aureus were isolated from Bothrops jararaca buccal flora and kindly provided by Dr. Márcia R. Franzolin (Laboratory of Bacteriology—Instituto Butantan). M. luteus was kindly provided by Dr. Pedro I. da Silva Jr. (Laboratory of Applied Toxinology—Instituto Butantan).

Micrococcus luteus A270 = tested on: Micrococcus luteus A270
Description: as §1, §2

Staphylococcus aureus = tested on: Staphylococcus aureus
Description: as §1, §2

Citrobacter freundii = tested on: Citrobacter freundii
Description: as §1, §2

Substance | MIC, E. coli [1] [µM] | MIC, M. luteus (Micrococcus luteus A270) [µM] | MIC, S. aureus (Staphylococcus aureus) [µM] | MIC, C. freundii (Citrobacter freundii) [µM]
QDLCHNLGGRCFRNRCSWSLRNHGGQDCPWGSVCCKP [DefbTs, synthetic β-defensin deduced from T. strigatus gene, GenBank KX664429] | >122 | 15.3 | >122 | >122
Crotamine | 13.3 | 1.7 | >105 | 6.7
QRRCRQRRGICRPRPCPPENFSLGRLDCQMGQMCCRRRFGK [DefbBm03, synthetic β-defensin deduced from B. mattogrossensis gene, GenBank KC117168] | 1.6 | 1.6 | >103 | 3.2
QRRCHQKGGMCLPGPCPPGYDSLGQQDCRRGQKCCIKRFGK [DefbBju01, synthetic β-defensin deduced from B. jararacussu gene, GenBank KC117165] | >111 | >111 | >111 | >111
QPECLRQGGMCRPRLCPYVSLGQLDCQNGHVCCRKKPRK [DefbBd03, synthetic β-defensin deduced from B. diporus gene, GenBank KC117160] | >115 | 0.9 | >115 | >115
QEECLQQGGFCRLIRCPFGYDSLEQQDCRKGQRCCIRKPRK [DefbBj01, synthetic β-defensin deduced from B. jararaca gene, GenBank KC117163] | >105 | 3.2 | >105 | >105
DPVTCLKSGAICHPVFCPRRYKQIGTCGLPGTKCCKKP [hBd02, synthetic human β-defensin, GenBank AF071216, reference compound] | 15.6 | 2 | >124 | >124
QRRCRQRRGICRPRPCPPENFSLGRLDCQMGRMCCRRRFGK [DefbBm02, synthetic β-defensin deduced from B. mattogrossensis gene, GenBank KC117167] | 3.2 | 0.8 | 12.8 | 1.6
QPECCQEGGICHSKQCPLGYSSLGRLDCQLGQRCCIRIFGK [DefbBn02, synthetic β-defensin deduced from B. neuwiedi gene, GenBank KC117169] | >113 | >113 | >113 | >113

— paper PMC8777785, “Antimicrobial Activity of Snake β-Defensins and Derived Peptides” (Toxins, 2021)
